Test results: the NIST ThermoML archive (doi:10.1021/je5010214)
Numbers after ± are expanded uncertainties.

Details: Liquid, Vibrating tube method

CCCCO [butan-1-ol]
mass density (353.15 K, 65063 kPa): 811.071 ± 0.96 kg/m3 | mass density (353.16 K, 2113.4 kPa): 763.181 ± 0.81 kg/m3 | mass density (353.16 K, 33964 kPa): 790.701 ± 0.88 kg/m3 | mass density (353.16 K, 62043 kPa): 809.275 ± 0.95 kg/m3 | mass density (353.16 K, 66024 kPa): 811.636 ± 0.96 kg/m3 | mass density (358.15 K, 264.1 kPa): 755.935 ± 0.81 kg/m3 | mass density (358.15 K, 508.4 kPa): 756.19 ± 0.81 kg/m3 | mass density (358.15 K, 926.8 kPa): 756.64 ± 0.82 kg/m3 | mass density (358.15 K, 1013.9 kPa): 756.732 ± 0.82 kg/m3 | mass density (358.15 K, 3021.2 kPa): 758.947 ± 0.81 kg/m3 | mass density (358.15 K, 4930 kPa): 760.98 ± 0.81 kg/m3 | mass density (358.15 K, 10073 kPa): 766.29 ± 0.82 kg/m3 | mass density (358.15 K, 12137 kPa): 768.259 ± 0.83 kg/m3 | mass density (358.15 K, 14905 kPa): 770.903 ± 0.83 kg/m3 | mass density (358.15 K, 17041 kPa): 772.871 ± 0.84 kg/m3 | mass density (358.15 K, 17965 kPa): 773.738 ± 0.84 kg/m3 | mass density (358.15 K, 22175 kPa): 777.415 ± 0.85 kg/m3 | mass density (358.15 K, 25059 kPa): 779.849 ± 0.86 kg/m3 | mass density (358.15 K, 28035 kPa): 782.278 ± 0.86 kg/m3 | mass density (358.15 K, 30002 kPa): 783.844 ± 0.87 kg/m3 | mass density (358.15 K, 31978 kPa): 785.37 ± 0.87 kg/m3 | mass density (358.15 K, 32793 kPa): 786.01 ± 0.88 kg/m3 | mass density (358.15 K, 33850 kPa): 786.716 ± 0.88 kg/m3 | mass density (358.15 K, 35027 kPa): 787.554 ± 0.88 kg/m3 | mass density (358.15 K, 37872 kPa): 789.731 ± 0.89 kg/m3 | mass density (358.15 K, 40037 kPa): 791.31 ± 0.89 kg/m3 | mass density (358.15 K, 42100 kPa): 792.749 ± 0.9 kg/m3 | mass density (358.15 K, 47958 kPa): 796.761 ± 0.92 kg/m3 | mass density (358.15 K, 50038 kPa): 798.154 ± 0.92 kg/m3 | mass density (358.15 K, 52081 kPa): 799.474 ± 0.93 kg/m3 | mass density (358.15 K, 55073 kPa): 801.393 ± 0.94 kg/m3 | mass density (358.15 K, 57918 kPa): 803.161 ± 0.94 kg/m3 | mass density (358.15 K, 60043 kPa): 804.453 ± 0.95 kg/m3 | mass density (358.15 K, 62067 kPa): 805.674 ± 0.96 kg/m3 | mass density (358.15 K, 64986 kPa): 807.407 ± 0.96 kg/m3 | mass density (358.15 K, 66109 kPa): 808.067 ± 0.97 kg/m3 | mass density (358.16 K, 95.1 kPa): 755.754 ± 0.81 kg/m3 | mass density (358.16 K, 2083.9 kPa): 757.886 ± 0.81 kg/m3 | mass density (358.16 K, 6993.5 kPa): 763.142 ± 0.82 kg/m3 | mass density (358.16 K, 9030.2 kPa): 765.202 ± 0.82 kg/m3 | mass density (358.16 K, 20162 kPa): 775.665 ± 0.84 kg/m3 | mass density (358.16 K, 45054 kPa): 794.81 ± 0.91 kg/m3 | mass density (363.15 K, 94 kPa): 752.456 ± 0.81 kg/m3 | mass density (363.15 K, 334 kPa): 752.741 ± 0.81 kg/m3 | mass density (363.15 K, 601.7 kPa): 753.061 ± 0.81 kg/m3 | mass density (363.15 K, 892.9 kPa): 753.404 ± 0.81 kg/m3 | mass density (363.15 K, 961.6 kPa): 753.487 ± 0.81 kg/m3 | mass density (363.15 K, 1034.7 kPa): 753.567 ± 0.81 kg/m3 | mass density (363.15 K, 1986 kPa): 754.594 ± 0.81 kg/m3 | mass density (363.15 K, 2940.4 kPa): 755.648 ± 0.81 kg/m3 | mass density (363.15 K, 4979.2 kPa): 757.84 ± 0.82 kg/m3 | mass density (363.15 K, 9959.5 kPa): 762.855 ± 0.82 kg/m3 | mass density (363.15 K, 11971 kPa): 764.806 ± 0.83 kg/m3 | mass density (363.15 K, 14936 kPa): 767.534 ± 0.83 kg/m3 | mass density (363.15 K, 17973 kPa): 770.255 ± 0.84 kg/m3 | mass density (363.15 K, 19940 kPa): 771.991 ± 0.84 kg/m3 | mass density (363.15 K, 24872 kPa): 776.146 ± 0.86 kg/m3 | mass density (363.15 K, 27993 kPa): 778.673 ± 0.86 kg/m3 | mass density (363.15 K, 30062 kPa): 780.285 ± 0.87 kg/m3 | mass density (363.15 K, 31961 kPa): 781.745 ± 0.88 kg/m3 | mass density (363.15 K, 33033 kPa): 782.563 ± 0.88 kg/m3 | mass density (363.15 K, 34000 kPa): 783.178 ± 0.88 kg/m3 | mass density (363.15 K, 35028 kPa): 783.945 ± 0.88 kg/m3 | mass density (363.15 K, 37919 kPa): 786.081 ± 0.89 kg/m3 | mass density (363.15 K, 39916 kPa): 787.488 ± 0.9 kg/m3 | mass density (363.15 K, 42016 kPa): 788.986 ± 0.9 kg/m3 | mass density (363.15 K, 47947 kPa): 793.03 ± 0.92 kg/m3 | mass density (363.15 K, 50050 kPa): 794.458 ± 0.93 kg/m3 | mass density (363.15 K, 52023 kPa): 795.718 ± 0.93 kg/m3 | mass density (363.15 K, 54940 kPa): 797.589 ± 0.94 kg/m3 | mass density (363.15 K, 57917 kPa): 799.479 ± 0.95 kg/m3 | mass density (363.15 K, 59980 kPa): 800.724 ± 0.96 kg/m3 | mass density (363.15 K, 62043 kPa): 802.008 ± 0.96 kg/m3 | mass density (363.15 K, 64924 kPa): 803.734 ± 0.97 kg/m3 | mass density (363.15 K, 66088 kPa): 804.418 ± 0.97 kg/m3 | mass density (363.16 K, 6920.2 kPa): 759.821 ± 0.82 kg/m3 | mass density (363.16 K, 8964.8 kPa): 761.886 ± 0.82 kg/m3 | mass density (363.16 K, 21933 kPa): 773.696 ± 0.85 kg/m3 | mass density (363.16 K, 44987 kPa): 791.029 ± 0.91 kg/m3
